Measured values reported in ChEMBL document CHEMBL5653631, “A Potent and Selective ULK1 Inhibitor Suppresses Autophagy and Sensitizes Cancer Cells to Nutrient Stress” (iScience, 2018).

Assays:
[1] = biological target: T1, Serine/threonine-protein kinase ULK2 (Homo sapiens, UniProt Q8IYT8); assay: Inhibition of human ULK2
T1 sequence (Q8IYT8 whole entry): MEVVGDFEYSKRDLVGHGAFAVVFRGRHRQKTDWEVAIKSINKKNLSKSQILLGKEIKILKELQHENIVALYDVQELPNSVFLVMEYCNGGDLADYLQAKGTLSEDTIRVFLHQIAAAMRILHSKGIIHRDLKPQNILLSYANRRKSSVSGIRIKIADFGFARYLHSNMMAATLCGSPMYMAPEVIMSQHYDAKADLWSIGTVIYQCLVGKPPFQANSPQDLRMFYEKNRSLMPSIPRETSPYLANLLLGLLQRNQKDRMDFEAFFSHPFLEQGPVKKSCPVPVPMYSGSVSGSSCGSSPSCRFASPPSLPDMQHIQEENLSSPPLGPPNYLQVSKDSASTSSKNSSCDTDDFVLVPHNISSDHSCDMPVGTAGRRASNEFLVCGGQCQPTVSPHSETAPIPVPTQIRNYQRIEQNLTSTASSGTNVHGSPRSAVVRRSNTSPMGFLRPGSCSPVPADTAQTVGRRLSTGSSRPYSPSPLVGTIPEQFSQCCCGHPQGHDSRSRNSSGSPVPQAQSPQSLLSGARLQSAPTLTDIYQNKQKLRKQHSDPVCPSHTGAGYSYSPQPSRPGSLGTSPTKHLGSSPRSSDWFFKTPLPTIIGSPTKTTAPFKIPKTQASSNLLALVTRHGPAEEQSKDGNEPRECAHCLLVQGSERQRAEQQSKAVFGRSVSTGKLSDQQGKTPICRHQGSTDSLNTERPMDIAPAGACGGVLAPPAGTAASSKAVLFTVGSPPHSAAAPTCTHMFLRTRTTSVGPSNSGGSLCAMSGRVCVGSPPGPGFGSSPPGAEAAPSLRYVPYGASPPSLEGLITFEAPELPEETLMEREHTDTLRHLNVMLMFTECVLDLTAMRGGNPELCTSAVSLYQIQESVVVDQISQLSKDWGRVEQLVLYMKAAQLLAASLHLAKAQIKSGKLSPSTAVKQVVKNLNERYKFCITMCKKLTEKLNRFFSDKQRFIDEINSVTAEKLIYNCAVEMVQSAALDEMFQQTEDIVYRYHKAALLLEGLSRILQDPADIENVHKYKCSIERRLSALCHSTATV

[2] = biological target: T2, Serine/threonine-protein kinase ULK1 (Homo sapiens) (UniProt O75385); assay: Inhibition of ULK1 phosphorylation at Ser15 residue in HEK293 cells incubated for 1 hr by chemiluminescence based immunoblotting analysis; type: cell-based; details: HEK293T, dose <= 20.0 µM
T2 sequence (whole entry): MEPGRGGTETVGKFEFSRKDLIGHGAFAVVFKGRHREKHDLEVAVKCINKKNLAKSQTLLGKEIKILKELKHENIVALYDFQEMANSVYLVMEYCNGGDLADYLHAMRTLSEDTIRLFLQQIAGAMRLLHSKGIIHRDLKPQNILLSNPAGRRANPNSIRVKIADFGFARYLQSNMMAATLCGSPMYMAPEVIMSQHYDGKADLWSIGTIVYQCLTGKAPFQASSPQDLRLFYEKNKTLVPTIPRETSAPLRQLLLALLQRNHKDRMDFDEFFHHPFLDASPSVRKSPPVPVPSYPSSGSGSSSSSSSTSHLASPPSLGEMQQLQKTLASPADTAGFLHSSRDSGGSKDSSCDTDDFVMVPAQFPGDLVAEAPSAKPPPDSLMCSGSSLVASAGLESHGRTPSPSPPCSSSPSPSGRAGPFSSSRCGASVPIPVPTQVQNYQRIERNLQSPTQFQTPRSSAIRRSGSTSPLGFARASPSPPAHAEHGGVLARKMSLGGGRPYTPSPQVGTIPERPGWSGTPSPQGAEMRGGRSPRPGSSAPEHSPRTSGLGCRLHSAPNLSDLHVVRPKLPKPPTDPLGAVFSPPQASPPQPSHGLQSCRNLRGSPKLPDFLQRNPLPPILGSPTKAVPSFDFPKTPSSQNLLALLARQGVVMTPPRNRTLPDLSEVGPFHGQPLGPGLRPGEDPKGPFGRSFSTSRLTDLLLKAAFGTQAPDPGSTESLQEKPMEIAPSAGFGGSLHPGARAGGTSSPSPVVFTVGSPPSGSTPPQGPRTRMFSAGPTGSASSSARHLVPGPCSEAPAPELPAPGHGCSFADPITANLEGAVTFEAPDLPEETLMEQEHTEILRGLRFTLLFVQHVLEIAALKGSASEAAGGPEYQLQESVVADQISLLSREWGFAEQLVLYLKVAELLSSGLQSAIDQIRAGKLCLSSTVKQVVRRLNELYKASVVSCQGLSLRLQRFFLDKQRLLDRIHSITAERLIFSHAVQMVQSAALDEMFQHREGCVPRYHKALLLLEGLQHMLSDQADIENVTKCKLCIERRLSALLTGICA

[3] = biological target: Mitogen-activated protein kinase kinase kinase 20 (Homo sapiens) (UniProt Q9NYL2); assay: Inhibition of human recombinant ZAK at 500 nM related to control ULK1
[4] = biological target: Mitogen-activated protein kinase 10 (Homo sapiens) (UniProt P53779); assay: Inhibition of human recombinant JNK3 at 15 nM in presence of ATP by radiometric assay relative to control
[5] = biological target: ALK tyrosine kinase receptor (Homo sapiens) (UniProt Q9UM73); assay: Inhibition of human recombinant ALK at 15 nM related to control ULK1
[6] = biological target: T3, Serine/threonine-protein kinase TBK1 (Homo sapiens) (UniProt Q9UHD2); assay: Inhibition of human recombinant TBK1 at 40 nM in presence of ATP by radiometric assay relative to control
T3 sequence (whole entry): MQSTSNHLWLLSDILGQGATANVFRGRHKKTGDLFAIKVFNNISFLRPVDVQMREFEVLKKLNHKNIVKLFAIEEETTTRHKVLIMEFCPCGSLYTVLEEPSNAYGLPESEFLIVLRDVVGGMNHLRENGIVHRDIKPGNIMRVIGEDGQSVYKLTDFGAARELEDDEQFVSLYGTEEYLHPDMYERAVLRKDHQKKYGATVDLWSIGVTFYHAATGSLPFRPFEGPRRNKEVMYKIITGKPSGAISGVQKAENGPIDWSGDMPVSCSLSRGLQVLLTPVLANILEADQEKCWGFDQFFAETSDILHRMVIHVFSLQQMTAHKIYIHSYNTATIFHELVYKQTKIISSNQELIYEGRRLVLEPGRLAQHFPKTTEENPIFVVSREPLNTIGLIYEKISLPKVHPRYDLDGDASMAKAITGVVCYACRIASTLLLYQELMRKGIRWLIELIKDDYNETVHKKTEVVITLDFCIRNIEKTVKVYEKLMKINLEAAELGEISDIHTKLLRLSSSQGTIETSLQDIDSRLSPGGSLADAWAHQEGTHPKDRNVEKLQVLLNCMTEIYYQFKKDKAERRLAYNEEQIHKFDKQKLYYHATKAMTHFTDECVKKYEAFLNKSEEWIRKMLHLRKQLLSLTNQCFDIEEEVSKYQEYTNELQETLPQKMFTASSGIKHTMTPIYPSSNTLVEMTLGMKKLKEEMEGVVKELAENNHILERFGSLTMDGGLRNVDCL

Mitogen-activated protein kinase kinase kinase 20 (Homo sapiens), sequence (Q9NYL2 2-800 limits assumed): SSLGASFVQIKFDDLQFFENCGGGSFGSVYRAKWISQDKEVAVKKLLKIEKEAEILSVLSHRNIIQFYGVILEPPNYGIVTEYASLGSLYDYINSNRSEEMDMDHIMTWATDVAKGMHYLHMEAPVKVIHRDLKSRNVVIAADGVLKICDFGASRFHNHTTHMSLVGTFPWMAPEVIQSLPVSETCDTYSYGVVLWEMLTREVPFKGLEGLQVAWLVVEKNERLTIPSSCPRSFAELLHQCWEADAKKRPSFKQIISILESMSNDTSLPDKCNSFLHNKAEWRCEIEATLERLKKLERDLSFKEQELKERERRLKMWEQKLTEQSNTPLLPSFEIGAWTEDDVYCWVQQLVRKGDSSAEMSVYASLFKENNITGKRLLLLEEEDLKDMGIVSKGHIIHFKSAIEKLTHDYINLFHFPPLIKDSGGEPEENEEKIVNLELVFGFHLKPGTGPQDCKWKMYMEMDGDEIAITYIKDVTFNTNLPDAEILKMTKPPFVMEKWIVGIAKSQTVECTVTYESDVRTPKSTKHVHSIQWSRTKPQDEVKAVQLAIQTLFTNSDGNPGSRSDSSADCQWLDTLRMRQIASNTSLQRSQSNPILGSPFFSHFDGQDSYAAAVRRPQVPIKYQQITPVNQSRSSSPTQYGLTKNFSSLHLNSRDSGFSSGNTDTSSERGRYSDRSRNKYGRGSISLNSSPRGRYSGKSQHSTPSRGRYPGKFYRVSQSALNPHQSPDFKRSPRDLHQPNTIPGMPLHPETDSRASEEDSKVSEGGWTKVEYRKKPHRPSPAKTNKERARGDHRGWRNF
ALK tyrosine kinase receptor (Homo sapiens), sequence (Q9UM73 19-1620 limits assumed): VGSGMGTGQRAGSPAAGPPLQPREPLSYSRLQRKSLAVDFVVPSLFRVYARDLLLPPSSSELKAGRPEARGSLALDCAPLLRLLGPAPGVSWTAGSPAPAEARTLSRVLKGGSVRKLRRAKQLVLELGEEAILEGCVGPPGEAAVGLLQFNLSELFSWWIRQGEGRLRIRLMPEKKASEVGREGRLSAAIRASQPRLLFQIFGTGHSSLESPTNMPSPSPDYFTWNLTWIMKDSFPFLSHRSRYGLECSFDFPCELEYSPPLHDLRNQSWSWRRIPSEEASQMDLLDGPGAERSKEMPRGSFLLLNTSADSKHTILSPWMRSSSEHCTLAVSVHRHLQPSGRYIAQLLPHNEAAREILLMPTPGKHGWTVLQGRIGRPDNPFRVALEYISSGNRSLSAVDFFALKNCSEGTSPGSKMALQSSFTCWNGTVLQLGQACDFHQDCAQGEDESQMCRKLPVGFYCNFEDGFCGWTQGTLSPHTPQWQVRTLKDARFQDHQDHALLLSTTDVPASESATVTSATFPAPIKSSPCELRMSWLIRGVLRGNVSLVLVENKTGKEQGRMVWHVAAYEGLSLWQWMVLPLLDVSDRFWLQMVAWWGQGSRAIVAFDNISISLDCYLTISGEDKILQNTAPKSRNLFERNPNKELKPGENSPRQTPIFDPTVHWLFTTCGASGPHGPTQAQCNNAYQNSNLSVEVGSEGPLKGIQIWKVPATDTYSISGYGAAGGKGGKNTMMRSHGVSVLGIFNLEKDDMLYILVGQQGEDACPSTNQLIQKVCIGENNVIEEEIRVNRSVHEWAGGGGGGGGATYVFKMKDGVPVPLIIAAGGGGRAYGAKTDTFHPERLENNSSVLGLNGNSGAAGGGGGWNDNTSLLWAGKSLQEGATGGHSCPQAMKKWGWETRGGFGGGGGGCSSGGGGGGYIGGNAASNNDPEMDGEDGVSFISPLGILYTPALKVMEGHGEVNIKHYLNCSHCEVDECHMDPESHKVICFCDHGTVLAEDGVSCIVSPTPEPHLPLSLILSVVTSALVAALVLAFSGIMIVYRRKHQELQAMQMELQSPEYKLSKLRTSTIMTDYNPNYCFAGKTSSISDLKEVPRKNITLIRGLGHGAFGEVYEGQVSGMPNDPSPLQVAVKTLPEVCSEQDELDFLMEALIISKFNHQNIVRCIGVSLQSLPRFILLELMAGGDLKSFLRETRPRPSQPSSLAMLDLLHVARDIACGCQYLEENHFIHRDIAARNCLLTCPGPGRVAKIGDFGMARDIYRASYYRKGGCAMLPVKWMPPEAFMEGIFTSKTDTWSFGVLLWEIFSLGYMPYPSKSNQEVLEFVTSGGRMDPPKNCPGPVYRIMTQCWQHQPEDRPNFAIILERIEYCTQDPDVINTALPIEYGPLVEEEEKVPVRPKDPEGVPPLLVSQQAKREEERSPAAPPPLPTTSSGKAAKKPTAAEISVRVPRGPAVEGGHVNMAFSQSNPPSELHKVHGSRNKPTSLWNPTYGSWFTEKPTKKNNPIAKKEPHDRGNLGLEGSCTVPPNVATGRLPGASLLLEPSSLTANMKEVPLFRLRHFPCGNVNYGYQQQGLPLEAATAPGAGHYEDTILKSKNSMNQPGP
Mitogen-activated protein kinase 10 (Homo sapiens), sequence (P53779 whole entry): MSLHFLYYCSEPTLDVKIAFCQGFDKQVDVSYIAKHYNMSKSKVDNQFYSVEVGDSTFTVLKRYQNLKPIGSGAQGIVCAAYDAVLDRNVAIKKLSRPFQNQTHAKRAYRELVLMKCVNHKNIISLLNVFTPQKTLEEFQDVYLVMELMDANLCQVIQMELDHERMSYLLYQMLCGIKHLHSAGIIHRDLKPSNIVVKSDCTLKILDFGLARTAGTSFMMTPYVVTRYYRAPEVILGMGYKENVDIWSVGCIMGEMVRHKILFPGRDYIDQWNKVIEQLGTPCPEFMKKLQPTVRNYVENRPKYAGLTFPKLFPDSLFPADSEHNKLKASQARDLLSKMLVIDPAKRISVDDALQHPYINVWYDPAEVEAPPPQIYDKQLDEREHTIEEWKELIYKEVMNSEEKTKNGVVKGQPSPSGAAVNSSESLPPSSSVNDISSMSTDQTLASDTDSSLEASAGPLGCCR

Row | IC50 [1] | inhibition [2] | fold change (FC) [3] | inhibition [4] | fold change (FC) [5] | inhibition [6] | SMILES
1 | 212 nM | Dose-Dependent Effect | 0.01 |  |  |  | CNC(=O)c1ccccc1Oc1nc(Nc2cc(OC)c(OC)c(OC)c2)ncc1Br
2 | 2.6 nM | Dose-Dependent Effect |  | 7% | 0 |  | CC(C)[C@H](NC(=O)c1cc(-c2cnn3cc(-c4ccc(OCCN5CCCCC5)cc4)cnc23)cs1)C(F)(F)F
3 | 30 nM | Dose-Dependent Effect |  |  |  | 26% | O=C(N[C@@H](C1CC1)C(F)(F)F)c1cc(-c2cnn3cc(-c4ccc(F)cc4)cnc23)cs1
